# According to patent US12064437B2, “Methods for treating systemic lupus erythematosus and the use of biomarkers as a predictor of clinical sensitivity to therapies” (CELGENE CORPORATION, priority 2020, dated 2024):
# Columns and labels:
# Format in all cases: in vivo, human
# [1] = test system: subjects with active autoantibody-positive SLE; assay: Phase 2b study in SLE: SLE Responder Index 4 (SRI-4) response at week 24; conditions: for Percentage of Subjects Who Achieve SRI(4) at Week 24, n/m (%) / SRI(4) at Week 24, Stratified Difference (%) (95% CI), Iberdomide - Placebo: ITT
# Experimental: (§1) The pharmacokinetics, pharmacodynamics (PD), efficacy, and safety of oral iberdomide ((S)-3-[4-({4-[(morpholin-4-yl)methyl]phenyl}methoxy)-1-oxo-1,3-dihydro-2H-isoindol-2-yl]piperidine-2,6-dione-hydrogen chloride (1/1)) were evaluated in a phase 2b study in subjects with active autoantibody-positive SLE.
# (§2) Adult SLE patients (N=288) with a ≥6-month history of SLE and SLE Disease Activity Index (SLEDAI 2K) ≥6 were randomized to placebo (n=83) or iberdomide 0.15 mg QD (n=42), 0.3 mg QD (n=82), or 0.45 mg QD (n=81). Clinical response was determined by the SLE Responder Index 4 (SRI-4) at week 24 for all patients and within pre-specified biomarker-enriched subsets based on expression of Ikaros, Aiolos, the Type 1 IFN signature (IFI27, IFI44, IFI44L, RSAD2), and other gene modules measured from fingerstick blood collected at baseline (Modular Immune Profile Test, DxTerity Diagnostics, Inc.). The primary objective of the study was to evaluate the clinical efficacy of 3 doses of iberdomide (0.45 mg once per day [QD], 0.30 mg QD, or 0.15 mg QD) compared to placebo, for the treatment of active SLE using the SLE Responder Index at Week 24.
# [2] = test system: subjects with active autoantibody-positive SLE; assay: Phase 2b study in SLE: BILAG-Based Combined Lupus Assessment (BICLA) response
# Experimental: as §1, §2
# The treatment comparison with placebo (33.3%) for BICLA was larger in the subgroup of subjects with baseline IKZF3 high, but only for 0.45 mg QD iberdomide (52.0%) and 0.15 mg QD iberdomide (41.7%).
# [3] = test system: subjects with active autoantibody-positive SLE; assay: Exposure-response analysis: logistic regression of SRI(4) response on iberdomide AUCss
# Experimental: PK assessments were performed. Exposure-response analysis included subjects from Study SLE-002 who had both posthoc estimated iberdomide PK metric of AUCss from the final population PK model and efficacy data.
# The effect of iberdomide exposure on SRI(4) response was further evaluated by multivariate logistic modeling. Subject characteristics of baseline oral OCS (yes as reference), baseline antimalarials (yes as reference), categorical variables of Type I IFN and IKZF3 (Aiolos) signature (low as reference) were tested in regression analysis. Subjects with IFKZ3 (Aiolos) high gene signature were associated with better response (p=0.033) (Table 2).
# [4] = test system: subjects with active autoantibody-positive SLE; assay: Phase 2b study in SLE: improvement of ≥50% from baseline in CLASI activity score; conditions: for percentage of subjects with improvement of ≥50% from baseline in CLASI activity score: baseline CLASI ≥8, Week 24
# Experimental: as §1, §2
# CLASI activity score at Week 24 was analyzed. Results for improvement of ≥50% from baseline in CLASI activity score at Week 24 were observed. Results are described as follows for overall subjects at each time point and for subgroups based on baseline characteristics and on mRNA and DNA expression as follows: […]
# [5] = T cell Exhaustion: Low at baseline, 0.15 mg QD
# [6] = T cell Exhaustion: Low at baseline, 0.30 mg QD
# [7] = T cell Exhaustion: Low at baseline, 0.45 mg QD
# [8] = Type 1 IFN: High at baseline, 0.15 mg QD
# [9] = Type 1 IFN: High at baseline, 0.30 mg QD
# [10] = Type 1 IFN: High at baseline, 0.45 mg QD
# [11] = AUCss on IFKZ3 (Aiolos) High Subset
smiles,measurement,setting,value
"O=C1CC[C@H](N2Cc3c(OCc4ccc(CN5CCOCC5)cc4)cccc3C2=O)C(=O)N1 [iberdomide, (S)-3-[4-({4-[(morpholin-4-yl)methyl]phenyl}methoxy)-1-oxo-1,3-dihydro-2H-isoindol-2-yl]piperidine-2,6-dione-hydrogen chloride (1/1)]","Percentage of Subjects Who Achieve SRI(4) at Week 24, n/m (%)","[1]; Overall Subjects, 0.45 mg QD, nonresponder imputation, listed as Iberdomide",44/81 (54.3) %
same,"SRI(4) at Week 24, Stratified Difference (%) (95% CI), Iberdomide - Placebo","[1]; Overall Subjects, 0.45 mg QD, listed as Iberdomide","19.4 (4.12, 33.42) %"
same,"Percentage of Subjects Who Achieve SRI(4) at Week 24, n/m (%)",[1]; [5],13/29 (44.8) %
same,"SRI(4) at Week 24, Stratified Difference (%) (95% CI), Iberdomide - Placebo",[1]; [5],"5.4 (−15.51, 26.63) %"
same,"Percentage of Subjects Who Achieve SRI(4) at Week 24, n/m (%)",[1]; [6],28/65 (43.1) %
same,"SRI(4) at Week 24, Stratified Difference (%) (95% CI), Iberdomide - Placebo",[1]; [6],"4.7 (−12.69, 21.53) %"
same,"Percentage of Subjects Who Achieve SRI(4) at Week 24, n/m (%)",[1]; [7],39/66 (59.1) %
same,"SRI(4) at Week 24, Stratified Difference (%) (95% CI), Iberdomide - Placebo",[1]; [7],"21.9 (4.30, 37.77) %"
same,"Percentage of Subjects Who Achieve SRI(4) at Week 24, n/m (%)",[1]; [8],15/25 (60.0) %
same,"SRI(4) at Week 24, Stratified Difference (%) (95% CI), Iberdomide - Placebo",[1]; [8],25.6%
same,"SRI(4) at Week 24, Stratified Difference (%) (95% CI), Iberdomide - Placebo","[1]; Type 1 IFN: High at baseline, 0.15 mg QD, listed as Iberdomide","25.6 (1.54, 46.35) %"
same,"Percentage of Subjects Who Achieve SRI(4) at Week 24, n/m (%)",[1]; [9],21/49 (42.9) %
same,"SRI(4) at Week 24, Stratified Difference (%) (95% CI), Iberdomide - Placebo",[1]; [9],"10.6 (−8.93, 29.11) %"
same,"Percentage of Subjects Who Achieve SRI(4) at Week 24, n/m (%)",[1]; [10],34/57 (59.6) %
same,"SRI(4) at Week 24, Stratified Difference (%) (95% CI), Iberdomide - Placebo",[1]; [10],26.8%
same,"SRI(4) at Week 24, Stratified Difference (%) (95% CI), Iberdomide - Placebo","[1]; Type 1 IFN: High at baseline, 0.45 mg QD, listed as Iberdomide","26.8 (7.49, 43.54) %"
same,SRI-4 clinical efficacy,"[1]; double-negative IFN Low Aiolos Low population, week 24",no clinical efficacy
same,percentage of subjects who achieved BICLA response at Week 24,"[2]; baseline IKZF3 high, 0.15 mg QD",41.7%
same,percentage of subjects who achieved BICLA response at Week 24,"[2]; baseline IKZF3 high, 0.45 mg QD",52.0%
same,"BICLA response at Week 24, stratified difference from placebo","[2]; overall subjects with baseline BILAG 2004 1A or 2B scores, 0.15 mg QD",0.3%
same,percentage of subjects who achieved BICLA response at Week 24,"[2]; overall subjects with baseline BILAG 2004 1A or 2B scores, 0.15 mg QD, NRI, ITT",37.1%
same,"BICLA response at Week 24, stratified difference from placebo","[2]; overall subjects with baseline BILAG 2004 1A or 2B scores, 0.30 mg QD",−3.6%
same,percentage of subjects who achieved BICLA response at Week 24,"[2]; overall subjects with baseline BILAG 2004 1A or 2B scores, 0.30 mg QD, NRI, ITT",33.3%
same,"BICLA response at Week 24, stratified difference from placebo","[2]; overall subjects with baseline BILAG 2004 1A or 2B scores, 0.45 mg QD",1.0%
same,percentage of subjects who achieved BICLA response at Week 24,"[2]; overall subjects with baseline BILAG 2004 1A or 2B scores, 0.45 mg QD, NRI, ITT",37.3%
same,OR (odds ratio) of Multivariate Logistic Model for SRI(4),[3]; [11],1.102
same,Parameter Estimate of Multivariate Logistic Model for SRI(4),[3]; [11],0.0969
same,relationship of binary response SRI(4) to iberdomide AUCss (logistic regression),[3]; dose range 0.15 mg to 0.45 mg QD,no relationship
same,"improvement of ≥50% from baseline in CLASI activity score, stratified difference from placebo","[4]; 0.45 mg QD, Week 8, ITT population using NRI",14.3%
same,"improvement of ≥50% from baseline in CLASI activity score, stratified difference from placebo","[4]; 0.45 mg QD, Week 12, ITT population using NRI",12.2%
same,"improvement of ≥50% from baseline in CLASI activity score, stratified difference from placebo","[4]; 0.45 mg QD, Week 16, ITT population using NRI",18.2%
same,"improvement of ≥50% from baseline in CLASI activity score, stratified difference from placebo","[4]; 0.45 mg QD, Week 20, ITT population using NRI",12.3%
same,percentage of subjects with improvement of ≥50% from baseline in CLASI activity score,"[4]; IKZF3 high, 0.15 mg QD",50.0%
same,percentage of subjects with improvement of ≥50% from baseline in CLASI activity score,"[4]; IKZF3 high, 0.30 mg QD",33.3%
same,percentage of subjects with improvement of ≥50% from baseline in CLASI activity score,"[4]; IKZF3 high, 0.45 mg QD",77.8%
same,percentage of subjects with improvement of ≥50% from baseline in CLASI activity score,"[4]; Ikaros IFN module high, 0.15 mg QD",54.5%
same,percentage of subjects with improvement of ≥50% from baseline in CLASI activity score,"[4]; Ikaros IFN module high, 0.30 mg QD",52.4%
same,percentage of subjects with improvement of ≥50% from baseline in CLASI activity score,"[4]; Ikaros IFN module high, 0.45 mg QD",63.6%
same,percentage of subjects with improvement of ≥50% from baseline in CLASI activity score,"[4]; Type 1 IFN module high, 0.15 mg QD",66.7%
same,percentage of subjects with improvement of ≥50% from baseline in CLASI activity score,"[4]; Type 1 IFN module high, 0.30 mg QD",52.4%
same,percentage of subjects with improvement of ≥50% from baseline in CLASI activity score,"[4]; Type 1 IFN module high, 0.45 mg QD",61.9%
same,"improvement of ≥50% from baseline in CLASI activity score, stratified difference from placebo","[4]; baseline CLASI activity score ≥8, 0.15 mg QD, Week 16",10.6%
same,"improvement of ≥50% from baseline in CLASI activity score, stratified difference from placebo","[4]; baseline CLASI activity score ≥8, 0.15 mg QD, Week 20",35.3%
same,"improvement of ≥50% from baseline in CLASI activity score, stratified difference from placebo","[4]; baseline CLASI activity score ≥8, 0.30 mg QD, Week 8",23.6%
same,"improvement of ≥50% from baseline in CLASI activity score, stratified difference from placebo","[4]; baseline CLASI activity score ≥8, 0.30 mg QD, Week 16",3.1
same,"improvement of ≥50% from baseline in CLASI activity score, stratified difference from placebo","[4]; baseline CLASI activity score ≥8, 0.45 mg QD, Week 4",32.0%
same,"improvement of ≥50% from baseline in CLASI activity score, stratified difference from placebo","[4]; baseline CLASI activity score ≥8, 0.45 mg QD, Week 16",9.4%
